The values that follow come from patent publication US10689378B2, “Triazolopyridine compounds and uses thereof” (Novartis AG, priority 2016, dated 2020).

Experiment [1] concerns H3K27 methylation in G401 cell. The experiment is described as follows: ELISA (H3K27 methylation) assay in G401 cells. The format is cell-based, human. Particulars: Homo sapiens. In outline: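 G401 cells treated 48 h with 3-fold dilutions (8 or 12 points, top 20 μM). Acid-extracted histones probed by ELISA for H3K27me3 or H3K27me2 with ECL readout, normalized to total H3. Percent inhibition versus DMSO fitted to dose-response curve for IC50.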
Background: ELISA stands for enzyme-linked immunosorbent assay.

Experiment [2] has as its target wild type PRC2 (wtPRC2) complex (Homo sapiens, UniProt O75530). The experiment is described as follows: EED LC-MS assay (SAH production by PRC2). The class given is biochemical. Particulars: read-out: (b) IC50 EED LC-MS Qualified. In outline:
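Pentameric PRC2 (EZH2, SUZ12, EED, Rbap48, AEBP), 12 nM final, preincubated 20 min with compound and SAM, then 1.5 μM biotinylated H3K27me0 peptide, 1 μM SAM, pH 8.0, 120 min at rt. SAH quantified by LC-MS/MS with d4-SAH; control-normalized activity fitted for IC50.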

In the next experiment the target is T1, EED (1-441)-His protein (Homo sapiens, UniProt O75530).
T1 construct: 30 nM EED (1-441)-His protein
The experiment is described as follows: EED-H3K27Me3 peptide competition binding assay by AlphaScreen. Particulars: read-out: (a) IC50 EED Alphascreen binding Qualified. In a few lines:
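Serially diluted compound (12 points, 3-fold) incubated 20 min with 30 nM EED(1-441)-His and 15 nM biotin-H3K27Me3(19-33) peptide in 25 mM HEPES pH 8, 0.02% Tween-20, 0.5% BSA. Ni-chelate acceptor/streptavidin donor beads (10 μg/mL each) added, 1 h rt dark; 615 nm emission normalized to controls, dose-response fit for IC50.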
(In Alpha technology, singlet oxygen from a donor bead excites a nearby acceptor bead.)

Where [3] appears, read: G-401, H3K27 methylation ELISA, read-out: (c) IC50 ELISA Qualified.
Setting [4] is: EED-H3K27Me3 peptide competition, AlphaScreen.
Where [5] appears, read: G-401, read-out: (c) IC50 ELISA Qualified.

Where two headings read alike, the source gives them in different places.

Sequence of wild type PRC2 (wtPRC2) complex (O75530 whole entry): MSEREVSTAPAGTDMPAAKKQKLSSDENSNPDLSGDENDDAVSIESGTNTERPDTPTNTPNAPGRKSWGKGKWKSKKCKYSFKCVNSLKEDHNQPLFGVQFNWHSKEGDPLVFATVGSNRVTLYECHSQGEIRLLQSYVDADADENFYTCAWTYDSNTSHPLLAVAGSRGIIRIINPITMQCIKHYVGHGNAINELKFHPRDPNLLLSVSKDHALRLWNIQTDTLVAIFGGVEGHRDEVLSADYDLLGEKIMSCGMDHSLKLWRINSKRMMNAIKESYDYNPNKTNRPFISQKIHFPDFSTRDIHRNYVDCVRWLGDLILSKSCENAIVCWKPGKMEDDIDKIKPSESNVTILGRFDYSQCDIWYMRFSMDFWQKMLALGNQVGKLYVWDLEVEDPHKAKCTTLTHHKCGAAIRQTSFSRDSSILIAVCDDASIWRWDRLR
Sequence of wild type PRC2 (wtPRC2) complex (Q15910 whole entry partner): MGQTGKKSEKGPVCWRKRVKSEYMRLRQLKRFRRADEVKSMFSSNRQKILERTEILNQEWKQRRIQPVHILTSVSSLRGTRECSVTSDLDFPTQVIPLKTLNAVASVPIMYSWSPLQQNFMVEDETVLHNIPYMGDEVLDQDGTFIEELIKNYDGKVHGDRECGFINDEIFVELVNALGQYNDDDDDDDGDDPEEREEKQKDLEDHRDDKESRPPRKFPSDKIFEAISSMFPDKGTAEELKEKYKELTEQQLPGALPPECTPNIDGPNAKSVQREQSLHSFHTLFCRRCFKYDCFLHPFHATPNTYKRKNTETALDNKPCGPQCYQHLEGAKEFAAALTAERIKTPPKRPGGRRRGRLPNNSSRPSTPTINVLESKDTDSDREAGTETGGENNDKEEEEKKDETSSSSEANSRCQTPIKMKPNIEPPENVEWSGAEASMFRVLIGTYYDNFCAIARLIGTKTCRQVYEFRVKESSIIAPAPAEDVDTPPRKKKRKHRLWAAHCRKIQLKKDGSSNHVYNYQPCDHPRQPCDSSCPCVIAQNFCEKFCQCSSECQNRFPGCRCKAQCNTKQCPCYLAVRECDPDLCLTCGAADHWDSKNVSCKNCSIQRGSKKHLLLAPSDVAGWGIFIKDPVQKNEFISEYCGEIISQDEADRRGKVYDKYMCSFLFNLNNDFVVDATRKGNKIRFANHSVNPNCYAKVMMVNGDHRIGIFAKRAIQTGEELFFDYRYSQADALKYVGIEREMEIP
Sequence of wild type PRC2 (wtPRC2) complex (Q15022 whole entry partner): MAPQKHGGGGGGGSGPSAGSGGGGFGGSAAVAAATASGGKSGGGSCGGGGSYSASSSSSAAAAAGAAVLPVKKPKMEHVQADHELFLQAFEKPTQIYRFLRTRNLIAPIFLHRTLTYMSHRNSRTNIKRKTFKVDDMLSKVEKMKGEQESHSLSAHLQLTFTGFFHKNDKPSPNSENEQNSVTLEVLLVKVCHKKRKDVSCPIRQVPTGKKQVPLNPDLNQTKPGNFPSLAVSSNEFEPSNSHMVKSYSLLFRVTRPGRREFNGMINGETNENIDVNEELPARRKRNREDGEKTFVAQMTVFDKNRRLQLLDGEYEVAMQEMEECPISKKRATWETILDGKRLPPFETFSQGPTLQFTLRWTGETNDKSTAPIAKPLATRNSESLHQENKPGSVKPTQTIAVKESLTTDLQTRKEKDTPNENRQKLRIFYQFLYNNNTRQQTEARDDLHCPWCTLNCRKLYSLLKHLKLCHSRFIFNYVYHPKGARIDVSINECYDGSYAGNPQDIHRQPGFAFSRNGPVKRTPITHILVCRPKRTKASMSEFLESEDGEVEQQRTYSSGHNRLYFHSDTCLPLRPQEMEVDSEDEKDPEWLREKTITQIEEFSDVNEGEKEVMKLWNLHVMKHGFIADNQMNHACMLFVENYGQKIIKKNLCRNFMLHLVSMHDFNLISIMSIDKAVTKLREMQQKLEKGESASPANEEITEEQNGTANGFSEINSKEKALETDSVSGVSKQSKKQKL
Sequence of wild type PRC2 (wtPRC2) complex (Q09028 whole entry partner): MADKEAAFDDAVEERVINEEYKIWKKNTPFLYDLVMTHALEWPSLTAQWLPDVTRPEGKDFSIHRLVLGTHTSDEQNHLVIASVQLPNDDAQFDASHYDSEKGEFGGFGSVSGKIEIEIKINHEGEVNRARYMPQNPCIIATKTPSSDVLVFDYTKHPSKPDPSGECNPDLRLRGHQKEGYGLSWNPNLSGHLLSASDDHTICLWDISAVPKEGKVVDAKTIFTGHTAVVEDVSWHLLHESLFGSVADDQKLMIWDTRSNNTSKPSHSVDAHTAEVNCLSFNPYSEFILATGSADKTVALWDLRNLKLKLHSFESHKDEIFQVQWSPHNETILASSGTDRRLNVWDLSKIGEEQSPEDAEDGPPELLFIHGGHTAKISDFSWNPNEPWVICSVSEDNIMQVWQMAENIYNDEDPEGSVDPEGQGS
Sequence of wild type PRC2 (wtPRC2) complex (Q6ZN18 whole entry partner): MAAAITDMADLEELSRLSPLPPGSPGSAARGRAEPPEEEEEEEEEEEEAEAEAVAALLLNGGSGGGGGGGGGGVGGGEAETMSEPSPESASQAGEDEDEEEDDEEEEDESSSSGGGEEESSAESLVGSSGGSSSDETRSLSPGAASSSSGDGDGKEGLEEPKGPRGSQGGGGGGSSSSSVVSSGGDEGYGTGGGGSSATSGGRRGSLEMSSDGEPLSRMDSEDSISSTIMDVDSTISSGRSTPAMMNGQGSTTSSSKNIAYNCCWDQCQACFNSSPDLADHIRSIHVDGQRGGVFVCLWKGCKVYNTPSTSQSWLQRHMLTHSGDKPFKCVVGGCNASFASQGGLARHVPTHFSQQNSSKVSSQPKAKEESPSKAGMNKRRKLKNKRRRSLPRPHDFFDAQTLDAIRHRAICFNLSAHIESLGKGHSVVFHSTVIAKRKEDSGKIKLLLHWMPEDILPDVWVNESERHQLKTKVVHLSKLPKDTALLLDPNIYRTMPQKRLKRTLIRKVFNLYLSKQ
T1 sequence (O75530 whole entry): as the sequence (O75530 whole entry) above

For the compound `COc1cccc(F)c1CNc1ccc(-c2cnn(C)c2CO)c2nncn12` [Example 336, (4-(5-((2-fluoro-6-methoxy benzyl)amino)-[1,2,4]triazolo[4,3-a]pyridin-8-yl)-1-methyl-1H-pyrazol-5-yl) methanol], the figures for the IC50 (in experiment [1] (setting [3]); in experiment [2] (PRC2 LC-MS assay); on EED (1-441)-His protein (setting [4])) were 0.0121 µM, 0.0595 µM and 0.0128 µM, respectively.

Consider `COc1cccc(F)c1CNc1ccc(-c2cc(C)ncc2C(F)F)c2nncn12` [Example 337, 8-(5-(difluoromethyl)-2-methylpyridin-4-yl)-N-(2-fluoro-6-methoxybenzyl)-[1,2,4]triazolo[4,3-a]pyridin-5-amine], for which the IC50 – broadly, the point on the concentration scale where inhibition reaches its midpoint – in experiment [1] (setting [3]) was 0.0431 µM; in experiment [2] (PRC2 LC-MS assay) it was 0.166 µM; at EED (1-441)-His protein (setting [4]) it was 0.0238 µM.

With `COc1cccc(F)c1CNc1ccc(-c2c(Cl)ccnc2C)c2nncn12` [Example 338, 8-(4-chloro-2-methylpyridin-3-yl)-N-(2-fluoro-6-methoxybenzyl)-[1,2,4]triazolo[4,3-a] pyridin-5-amine], the results for the IC50 (in experiment [1] (setting [3]); in experiment [2] (PRC2 LC-MS assay); at EED (1-441)-His protein (setting [4])) were 0.0162 µM, 0.0421 µM and 0.0074 µM, respectively.

As to `COc1cccc(F)c1CNc1ccc(-c2ccc(CC#N)nc2C)c2nncn12` [Example 339, 2-(5-(5-((2-fluoro-6-methoxybenzyl)amino)-[1,2,4]triazolo[4,3-a]pyridin-8-yl)-6-methylpyridin-2-yl) acetonitrile], the IC50 in experiment [1] (setting [3]) amounted to 0.0067 µM; in experiment [2] (PRC2 LC-MS assay), 0.0209 µM; on EED (1-441)-His protein (setting [4]) it was 0.006 µM.

Regarding `COc1cccc(F)c1CNc1ccc(-c2cccnc2C#N)c2nncn12` [Example 340, 3-(5-((2-fluoro-6-methoxybenzyl)amino)-[1,2,4]triazolo[4,3-a]pyridin-8-yl) picolinonitrile], the IC50 is 0.0255 µM in experiment [1] (setting [3]), 0.523 µM in experiment [2] (PRC2 LC-MS assay) and 0.0125 µM on EED (1-441)-His protein (setting [4]).

With `COc1cccc(F)c1CNc1ccc(-c2cccnc2CC#N)c2nncn12` [Example 341, 2-(3-(5-((2-fluoro-6-methoxybenzyl)amino)-[1,2,4]triazolo[4,3-a]pyridin-8-yl)pyridin-2-yl)acetonitrile], the results for the IC50 (in experiment [1] (setting [3]); in experiment [2] (PRC2 LC-MS assay); at EED (1-441)-His protein (setting [4])) were 0.0219 µM, 0.0955 µM and 0.0216 µM, respectively.

With `CCOc1ncc(-c2ccc(NCc3c(F)cc(F)cc3OC)n3cnnc23)c(C)n1` [Example 343, N-(2,4-difluoro-6-methoxybenzyl)-8-(2-ethoxy-4-methylpyrimidin-5-yl)-[1,2,4]triazolo[4,3-a]pyridin-5-amine], the results for the IC50 (in experiment [1] (setting [3]); in experiment [2] (PRC2 LC-MS assay); on EED (1-441)-His protein (setting [4])) were 0.0365 µM, 0.492 µM and 0.0257 µM, respectively.

Consider `COc1cccc(F)c1CNc1ccc(-c2cnccc2CO)c2nncn12` [Example 345, (3-(5-((2-fluoro-6-methoxy benzyl)amino)-[1,2,4]triazolo[4,3-a]pyridin-8-yl)pyridin-4-yl)methanol], for which the IC50 came to 0.0104 µM in experiment [1] (setting [3]), 0.0245 µM in experiment [2] (PRC2 LC-MS assay) and 0.0076 µM at EED (1-441)-His protein (setting [4]).

For the compound `COc1ncccc1CNc1ccc(-c2cnc(C)nc2C)c2nncn12` [Example 348, 8-(2,4-dimethylpyrimidin-5-yl)-N-((2-methoxypyridin-3-yl)methyl)-[1,2,4]triazolo [4,3-a]pyridin-5-amine], the IC50 in experiment [1] (setting [5]) came out at 0.0455 µM; in experiment [2], 0.209 µM; on EED (1-441)-His protein it was 0.0851 µM.

With `COc1cc(F)cc(F)c1CNc1ccc(-c2cnc(OC(C)C)nc2C)c2nncn12` [Example 349, N-(2,4-difluoro-6-methoxybenzyl)-8-(2-isopropoxy-4-methylpyrimidin-5-yl)-[1,2,4]triazolo[4,3-a]pyridin-5-amine], the IC50 in experiment [1] (setting [5]) stood at 0.0312 µM; in experiment [2], 0.291 µM; at EED (1-441)-His protein it was 0.0229 µM.

Take `COc1cccc(F)c1CNc1ccc(-c2cc(C#N)cnc2C)c2nncn12` [Example 350, 5-(5-((2-fluoro-6-methoxybenzyl)amino)-[1,2,4]triazolo[4,3-a]pyridin-8-yl)-6-methylnicotinonitrile]: the IC50 is 0.0164 µM in experiment [1] (setting [5]), 0.0454 µM in experiment [2] and 0.0322 µM at EED (1-441)-His protein.

In the case of `COc1cccc(F)c1CNc1ccc(-c2ccc(C(C)C)nc2C)c2nncn12` [Example 351, N-(2-fluoro-6-methoxybenzyl)-8-(6-isopropyl-2-methylpyridin-3-yl)-[1,2,4]triazolo[4,3-a]pyridin-5-amine], the IC50 in experiment [1] (setting [5]) was found to be 0.0155 µM; in experiment [2], 0.0229 µM; at EED (1-441)-His protein, 0.0234 µM.

`COc1cccc(F)c1CNc1ccc(-c2cnc(C(C)C)cc2C)c2nncn12` [Example 352, N-(2-fluoro-6-methoxybenzyl)-8-(6-isopropyl-4-methylpyridin-3-yl)-[1,2,4] triazolo[4,3-a]pyridin-5-amine]: the IC50 was 0.032 µM in experiment [1] (setting [5]), 0.106 µM in experiment [2] and 0.0295 µM on EED (1-441)-His protein.

On to `COc1cccc(F)c1CNc1ccc(-n2cc(C)cn2)c2nncn12` [Example 353, N-(2-fluoro-6-methoxybenzyl)-8-(4-methyl-1H-pyrazol-1-yl)-[1,2,4]triazolo [4,3-a]pyridin-5-amine], for which the IC50 in experiment [1] (setting [5]) was determined as 0.0393 µM; in experiment [2] it was 0.156 µM; on EED (1-441)-His protein it was 0.0258 µM.

For `COc1cccc(F)c1CNc1ccc(-n2cnc(C)c2)c2nncn12` [Example 354, N-(2-fluoro-6-methoxybenzyl)-8-(4-methyl-1H-imidazol-1-yl)-[1,2,4]triazolo [4,3-a]pyridin-5-amine], the IC50 in experiment [1] (setting [5]) was determined as 0.0214 µM; in experiment [2], 0.0606 µM; at EED (1-441)-His protein, 0.0261 µM.

Take `COc1cccc(F)c1CNc1ccc(-c2nc(C)nn2C)c2nncn12` [Example 355, 8-(1,3-dimethyl-1H-1,2,4-triazol-5-yl)-N-(2-fluoro-6-methoxybenzyl)-[1,2,4] triazolo[4,3-a]pyridin-5-amine]: the IC50 in experiment [1] (setting [5]) turned out to be 0.0117 µM; in experiment [2] it was 0.0305 µM; on EED (1-441)-His protein it was 0.0158 µM.

As for `COc1cccc(F)c1CNc1ccc(-c2ncnn2C)c2nncn12` [Example 356, N-(2-fluoro-6-methoxybenzyl)-8-(1-methyl-1H-1,2,4-triazol-5-yl)-[1,2,4] triazolo[4,3-a]pyridin-5-amine], the figures for the IC50 (in experiment [1] (setting [5]); in experiment [2]; on EED (1-441)-His protein) were 0.014 µM, 0.117 µM and 0.019 µM, respectively.

Regarding `COc1cccc(F)c1CNc1ccc(-n2cccn2)c2nncn12` [Example 357, N-(2-fluoro-6-methoxybenzyl)-8-(1H-pyrazol-1-yl)-[1,2,4]triazolo[4,3-a]pyridin-5-amine], the IC50 in experiment [1] (setting [5]) amounted to 0.0389 µM; in experiment [2], 0.144 µM; on EED (1-441)-His protein, 0.0256 µM.

On to `COc1cccc(F)c1CNc1ccc(-n2cncn2)c2nncn12` [Example 358, N-(2-fluoro-6-methoxybenzyl)-8-(1H-1,2,4-triazol-1-yl)-[1,2,4]triazolo[4,3-a] pyridin-5-amine], for which the IC50 in experiment [1] (setting [5]) came to 0.0195 µM; in experiment [2] it was 0.286 µM; at EED (1-441)-His protein it was 0.0171 µM.

As for `COc1cccc(F)c1CNc1ccc(-n2ccc(C)n2)c2nncn12` [Example 359, N-(2-fluoro-6-methoxybenzyl)-8-(3-methyl-1H-pyrazol-1-yl)-[1,2,4]triazolo [4,3-a]pyridin-5-amine], the IC50 in experiment [1] (setting [5]) came out at 0.0551 µM; in experiment [2] it was 0.274 µM; at EED (1-441)-His protein, 0.0429 µM.

In the case of `COc1cccc(F)c1CNc1ccc(-n2ccnn2)c2nncn12` [Example 361, N-(2-fluoro-6-methoxybenzyl)-8-(1H-1,2,3-triazol-1-yl)-[1,2,4]triazolo[4,3-a] pyridin-5-amine], the figures for the IC50 (in experiment [1] (setting [5]); in experiment [2]; at EED (1-441)-His protein) were 0.0211 µM, 0.0696 µM and 0.0151 µM, respectively.

Turning to `COc1cccc(F)c1CNc1ccc(-n2ccnc2C)c2nncn12` [Example 362, N-(2-fluoro-6-methoxybenzyl)-8-(2-methyl-1H-imidazol-1-yl)-[1,2,4]triazolo [4,3-a]pyridin-5-amine], the IC50 in experiment [1] (setting [5]) turned out to be 0.017 µM; in experiment [2], 0.0334 µM; on EED (1-441)-His protein, 0.0398 µM.

For `COc1cccc(F)c1CNc1ccc(-n2ccnc2)c2nncn12` [Example 363, N-(2-fluoro-6-methoxybenzyl)-8-(1H-imidazol-1-yl)-[1,2,4]triazolo[4,3-a] pyridin-5-amine], the IC50 in experiment [1] (setting [5]) turned out to be 0.0193 µM; in experiment [2] it was 0.0554 µM; at EED (1-441)-His protein, 0.025 µM.

For the compound `COc1cccc(F)c1CNc1ccc(-c2cnc(C)n2C)c2nncn12` [Example 366, 8-(1,2-dimethyl-1H-imidazol-5-yl)-N-(2-fluoro-6-methoxybenzyl)-[1,2,4]triazolo[4,3-a]pyridin-5-amine], the IC50 in experiment [1] (setting [5]) is 0.0034 µM; in experiment [2] it was 0.0455 µM; at EED (1-441)-His protein, 0.0133 µM.

In the case of `COc1cccc(F)c1CNc1ccc(-n2cc(C)c(C)n2)c2nncn12` [Example 367, 8-(3,4-dimethyl-1H-pyrazol-1-yl)-N-(2-fluoro-6-methoxybenzyl)-[1,2,4]triazolo[4,3-a] pyridin-5-amine], the figures for the IC50 (in experiment [1] (setting [5]); in experiment [2]; at EED (1-441)-His protein) were 0.0291 µM, 0.113 µM and 0.0235 µM, respectively.
